Assay results as given in patent US9493453B2, “Piperazinyl pyrimidine derivatives, preparation method and use thereof” (INSTITUTE OF PHARMACOLOGY AND TOXICOLOGY ACADEMY OF …, priority 2012, dated 2016).
Read-outs that look alike come from different tables or passages of the source.

Columns and labels:
mice rhinitis model = experiment: Mice rhinitis model experiment (OVA-sensitized BALB/c mice); format: in vivo; details: Example 8 compound 1 μg/Kg, budesonide 1.28 mg/Kg
Protocol: Mice Rhinitis Model Experiment
Female BALB/c mice (6-8 weeks) were sensitized with chicken ovalbumin (OVA, Sigma-Aldrich, St Louis, Mo., USA). The compound of the present invention (for example, the compound of Example 8) was administered to nasal mucosa, at a dose 1 μg/Kg. Glucocorticoid hormonal drug budesonide, a first-line clinical drug, was used as positive control, at a dose 1.28 mg/Kg. Meanwhile, there were provided a normal group wherein the mice were not sensitized and not administered, and an OVA group wherein the mice were sensitized and not administered. The following five indicators were detected: the number of sneezing, the number of nasal scratching within 10 min after administration; IL-4 level in bronchoalveolar lavage fluid; serum IgE level; lung tissue inflammation score. Lung tissue inflammation score was rated according to a single blind method: inflammation was divided into four levels from mild to severe, marked as 0-3 scores: 0 representing no detected inflammation; 1 representing occasional inflammatory cells being visible; 2 representing bronchus or blood vessel being surrounded by eosinophils, but less than five cell layers; 3 representing bronchus or blood vessel being surrounded by a large number of eosinophils, with 5 or more cell layers.

CCR4 receptor = target: T1, CCR4 receptor (Homo sapiens, UniProt P51679); experiment: Inhibition of MDC/TARC/C27 mediated chemotactic response of CCR4-transfected HEK293 cells (Boyden chamber); format: cell-based; details: chemotactic inhibition rate, compound 1 μM, HEK293 cells transfected with pCDI-CCR4, 5 hours
T1 construct: cDNA fragments of receptor open reading frame were respectively inserted into pcDI; expressed in transfected cells; host or cells: HEK293 cells, transiently transfected by electroporation with pCDI-CCR4
T1 sequence (P51679 1-360): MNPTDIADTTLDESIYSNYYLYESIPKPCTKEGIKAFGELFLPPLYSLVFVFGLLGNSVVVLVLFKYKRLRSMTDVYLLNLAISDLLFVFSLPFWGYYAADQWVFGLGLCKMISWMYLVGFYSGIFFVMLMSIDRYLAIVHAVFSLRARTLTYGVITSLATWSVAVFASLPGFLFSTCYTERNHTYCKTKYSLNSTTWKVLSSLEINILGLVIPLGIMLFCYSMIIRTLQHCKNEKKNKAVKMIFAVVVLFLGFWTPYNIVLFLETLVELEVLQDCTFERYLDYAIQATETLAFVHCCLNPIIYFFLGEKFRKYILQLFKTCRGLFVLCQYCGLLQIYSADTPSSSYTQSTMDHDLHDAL
Text: Whether or not compounds 1-14 of the present invention can inhibit MDC (Peprotech) mediated chemotactic response of HEK293 cells was studied by using Boyden chamber (Neuro Probe, Inc.).
1. Construction of Receptor Expression Plasmid:
cDNA fragments including human chemokine receptor open reading frame were obtained by the following method: CCR4 receptor was cloned from a cDNA library of K562 cells through polymerase chain reaction (PCR). Primers were designed according to the sequence of Gen-Bank™ accession: CCR4 (NM_005508.2). cDNA fragments of receptor open reading frame were respectively inserted into pcDI (vector transformed in the chamber: eukaryotic expression vector obtained by replacing a BglII KpnI fragment of pcDNA3 (Invitrogen Corporation) plasmid with a BglII KpnI fragment of pCI (Promega Corporation) plasmid) expression vector so as to make them effectively express in HEK293 cells.
HEK293 cells were cultured in RPMI 1640 (Life Technologies, Inc.) containing 10% heat-inactivated fetal bovine serum, 100 U/mL penicillin, 100 μg/mL streptomycin. Each 4×10^6 HEK293 cells/400 μL were transiently transfected through electroporation with 15 μg chemokine receptor expression plasmids, under the condition of 120 V for 20 ms, the instrument used being electric pulse generator (Electro Square porator ECM 830, BTX, San Diego, Calif.). After 36-48 hr, chemotactic assay was carried out.
3. The Inhibitory Effect on MDC/TARC/C27 Mediated Chemotactic Response of HEK293 Cells
Chemokines MDC/TARC/C27 were diluted to 10 ng/mL with RPMI1640 (Life Technologies, Inc.), 0.1% BSA (Sigma), and added to lower holes in a 48-hole chemotactic chamber, 27.5 μL each hole. Eukaryotic expression plasmids pCDI-CCR4 were electrically shifted to HEK293 cells, and cultured normally for 36 hr. The cells were digested, re-suspended with RPMI1640, 10% FBS (Life Technologies, Inc.), and subjected to rotary incubation at 37° C. for 6.5 hours. The cells were washed twice with RPMI1640, and suspended in RPMI1640, 0.1% BSA, with a final concentration of 1×10^6/mL. The cells and the candidate compound dissolved in DMSO (Sigma) were subjected to rotary incubation at room temperature for half an hour, the final concentration of the candidate compound being 1 μM, and the final concentration of DMSO being 0.1%, and then added to upper holes in the chemotactic chamber, 55 μL each hole. The two layers were spaced by a polycarbon membrane with pore size of […] (Neuro Probe, Inc.). The chemotactic reaction was carried out in 5% CO2 at 37° C. for 5 hours. There were three groups of control in the experiment, wherein the first group was positive control, in which the transfected cells were directly added to upper holes without incubated with the candidate compound, while chemokines MDC/TARC/C27 were added to lower holes. The second group was negative control, in which the transfected cells were directly added to upper holes without incubated with the candidate compound, while RPMI1640, 0.1% BSA were added to lower holes. The third group was solvent DMSO control of the candidate compound, in which the transfected cells and DMSO were incubated at room temperature, the final concentration of DMSO being 0.1%, while chemokines MDC/TARC/C27 were added to lower holes. After completion of the chemotactic reaction, the membrane was removed, fixed and stained, and, at 400× high magnification, five horizons were randomly selected to count the cells, which were then summed. The ratio of the sum of the numbers of cells in five horizons at high magnification in each experimental group to the sum of the numbers of cells in five horizons at high magnification in the negative control group is obtained as Chemotactic Index (CI). Chemotactic inhibition rate was calculated as follows: […]

[1] = OVA-sensitized female BALB/c mice, nasal mucosa, within 10 min after administration
[2] = chemokine C27 10 ng/mL, read-out: C27 inhibition rate
[3] = chemokine MDC 10 ng/mL, read-out: MDC inhibition rate
[4] = chemokine TARC 10 ng/mL, read-out: TARC inhibition rate

SMILES	IL-4 (mice rhinitis model; IL-4 level in bronchoalveolar lavage fluid, OVA-sensitized mice) [pg/mL]	Nasal scratching (mice rhinitis model; [1]) [times/10 mins]	Sneezing (mice rhinitis model; [1]) [times/10 mins]	Inflammation score (mice rhinitis model; lung tissue inflammation score 0-3, single blind, OVA-sensitized mice)	IgE (mice rhinitis model; serum IgE level, OVA-sensitized mice) [ng/mL]	inhibition at 1 µM (CCR4 receptor; [2]) [%]	inhibition at 1 µM (CCR4 receptor; [3]) [%]	inhibition at 1 µM (CCR4 receptor; [4]) [%]
CCCC1O[C@@H]2C[C@H]3[C@@H]4CCC5=CC(=O)C=C[C@]5(C)[C@H]4[C@@H](O)C[C@]3(C)[C@]2(C(=O)CO)O1 (some centres unmarked) [Budesonide, budesonide, reference compound]	2.9 ± 1.5	12.0 ± 1.3	31.7 ± 4.0	1.5 ± 0.6	2822 ± 51			
CCC(=O)N1CCN(c2nc(NCc3ccc(Cl)cc3Cl)cc(N(C)CC(OC)OC)n2)CC1 [Compound 1, 1-{4-{4-[(2,4-dichlorobenzyl)amino]-6-[(2,2-dimethoxyethyl)methylamino]pyrimidin-2-yl}piperazin-1-yl}propanone]						25.3	36.3	46.4
COC(CN(C)c1cc(NCc2ccc(Cl)cc2Cl)nc(N2CCN(C(=O)C(C)C)CC2)n1)OC [Compound 2, 1-{4-{4-[(2,4-dichlorobenzyl)amino]-6-[(2,2-dimethoxyethyl)methylamino]pyrimidin-2-yl}piperazin-1-yl}-2-methylpropanone]						39	36.1	41.7
COC(CN(C)c1cc(NCc2ccc(Cl)cc2Cl)nc(N2CCN(C(=O)CCSC)CC2)n1)OC [Compound 3, 1-{4-{4-[(2,4-dichlorobenzyl)amino]-6-[(2,2-dimethoxyethyl)methylamino]pyrimidin-2-yl}piperazin-1-yl}-3-methylthiopropanone]						43.9	35.5	58.3
CCC(=O)N1CCN(c2nc(NCc3ccc(Cl)cc3Cl)cc(N(CCOC)CCOC)n2)CC1 [Compound 4, 1-{4-{4-[bis(2-methoxyethyl)amino]-6-(2,4-dichlorobenzylamino)-pyrimidin-2-yl}piperazin-1-yl}propanone]						34.6	54.9	45.2
COCCN(CCOC)c1cc(NCc2ccc(Cl)cc2Cl)nc(N2CCN(C(=O)C(C)C)CC2)n1 [Compound 5, 1-{4-{4-[bis(2-methoxyethyl)amino]-6-(2,4-dichlorobenzylamino)-pyrimidin-2-yl}piperazin-1-yl}-2-methylpropanone]						40.1	54.5	39.1
COCCN(CCOC)c1cc(NCc2ccc(Cl)cc2Cl)nc(N2CCN(C(=O)CCSC)CC2)n1 [Compound 6, 1-{4-{4-[bis(2-methoxyethyl)amino]-6-(2,4-dichlorobenzylamino)-pyrimidin-2-yl}piperazin-1-yl}-3-methylthiopropanone]						51.2	19.4	55.7
COCCN(CCOC)c1cc(NCc2ccc(Cl)cc2Cl)nc(N2CCN(C(=O)C3CCCCC3)CC2)n1 [Compound 7, {4-{4-[bis(2-methoxyethyl)amino]-6-(2,4-dichlorobenzylamino)-pyrimidin-2-yl}piperazin-1-yl}cyclohexylmethanone]						37.9	30	51
O=C([C@@H]1CSCCN1)N1CCN(c2nc(Cl)cc(NCc3ccc(Cl)cc3Cl)n2)CC1 [Compound 9, (R)-{4-{4-chloro-6-[(2,4-dichlorobenzyl)amino]pyrimidin-2-yl}piperazin-1-yl}(thiomorpholin-3-yl)methanone]						39.5	22.2	10.4
CCC(=O)N1CCN(c2nc(NCc3ccc(Cl)cc3Cl)c3cccnc3n2)CC1 [Compound 10, 1-{4-{4-[(2,4-dichlorobenzyl)amino]pyrido[2,3-d]pyrimidin-2-yl}piperazin-1-yl}propanone]						38.3	32.3	59.8
CC(C)C(=O)N1CCN(c2nc(NCc3ccc(Cl)cc3Cl)c3cccnc3n2)CC1 [Compound 11, 1-{4-{4-[(2,4-dichlorobenzyl)amino]pyrido[2,3-d]pyrimidin-2-yl}piperazin-1-yl}-2-methylpropanone]						35.2	32.3	61.4
O=C(C1CCCCC1)N1CCN(c2nc(NCc3ccc(Cl)cc3Cl)c3cccnc3n2)CC1 [Compound 12, cyclohexyl{4-{4-[(2,4-dichlorobenzyl)amino]pyrido[2,3-d]pyrimidin-2-yl}piperazin-1-yl}methanone]						6.17	57.2	61.1
CCCN1CCN(c2nc(NCc3ccc(Cl)cc3Cl)c3cccnc3n2)CC1 [Compound 13, 4-[(2,4-dichlorobenzyl)amino]-2-(4-propylpiperazin-1-yl)pyrido[2,3-d]pyrimidine]						16.7	48.8	35.2
O=C([C@@H]1CSCCN1)N1CCN(c2nc(NCc3ccc(Cl)cc3Cl)c3cccnc3n2)CC1 [Compound 14, (R)-{4-{4-[(2,4-dichlorobenzyl)amino]pyrido[2,3-d]pyrimidin-2-yl}piperazin-1-yl}(thiomorpholin-3-yl)methanone]						30.5	62.1	73.6
